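Each compound was tested at five concentrations against cells in 96-well plates for 48 hours. TGI: total growth inhibition.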
How the values were obtained:
Experiment in all cases: inhibition of tumour cell growth, NCI panel, 48 h
786-0 renal = test system: 786-0 renal
EKVX NSCLC = test system: EKVX NSCLC
MDA-MB-231 breast = test system: MDA-MB-231 breast
MDA-N = test system: MDA-N
NCI-H460 lung = test system: NCI-H460 lung
OVCAR-3 ovarian = test system: OVCAR-3 ovarian
SF-268 CNS = test system: SF-268 CNS
SK-MEL-2 melanoma = test system: SK-MEL-2 melanoma
SR leukemia = test system: SR leukemia
T-47D breast = test system: T-47D breast
U251 CNS = test system: U251 CNS

Compound | TGI (786-0 renal) | TGI (EKVX NSCLC) | TGI (MDA-MB-231 breast) | TGI (MDA-N) | TGI (NCI-H460 lung) | TGI (OVCAR-3 ovarian) | TGI (SF-268 CNS) | TGI (SK-MEL-2 melanoma) | TGI (SR leukemia) | TGI (T-47D breast) | TGI (U251 CNS)
COC(=O)C1Cc2c(OC)ccc(OC)c2C(O)C1C(=O)OC (stereo not drawn) | > 100 µM | > 100 µM | > 100 µM | > 100 µM | > 100 µM | > 100 µM | > 100 µM | > 100 µM | > 100 µM | > 100 µM | > 100 µM
CC1(C)CC(=O)c2c(nc3c(ccc4ccccc43)c2-c2ccc(NC(=O)CCC(=O)Nc3ccc(-c4c5c(nc6c4ccc4ccccc46)CC(C)(C)CC5=O)cc3)cc2)C1 | > 100 µM | > 100 µM | > 100 µM | > 100 µM | > 100 µM | > 100 µM | > 100 µM | > 100 µM | > 100 µM | > 100 µM | > 100 µM
COC(=O)c1c(CC(Cc2ccc3c(c2)CCCC3)C(=O)O)ccc2c1CCCC2 (stereo not drawn) | > 100 µM | 68.6 µM | > 100 µM | > 100 µM | 47.9 µM | 34.3 µM | > 100 µM | 39.5 µM | 91.6 µM | > 100 µM | > 100 µM
CCOC(=O)C(=CNc1ccc(N(C2=NCC(C)S2)c2ccc(F)c(Cl)c2)cc1)C(=O)OCC (stereo not drawn) | 33.2 µM | 43.3 µM | 30.9 µM | 43.1 µM | 49.7 µM | 51.8 µM | 55.3 µM | 43.7 µM | 43.1 µM | 49.5 µM | 48.1 µM
Cc1ccc(O)c(C2=CC3=NNC(=O)C3C(c3cccc(Cl)c3)C2)c1 (stereo not drawn) | > 100 µM | > 100 µM | > 100 µM | 92.2 µM | > 100 µM | 84.1 µM | > 100 µM | 86.2 µM | > 100 µM | > 100 µM | > 100 µM
Cc1ccc(-c2c(-c3ccccc3)[nH]c(C)c2C(=O)ONC(=O)c2ccccc2)cc1 | 12.6 µM | > 50.3 µM | 12.8 µM | 6.12 µM | 5.21 µM | 17.4 µM | 7.31 µM | 16.2 µM | 5.36 µM | 19.9 µM | 4.07 µM
O=C1C[C@@]23CCC4(CC2CCC[C@H]3O1)OCCO4 (stereo partly drawn) | > 100 µM | > 100 µM | > 100 µM | > 100 µM | > 100 µM | > 100 µM | > 100 µM | > 100 µM | > 100 µM | > 100 µM | > 100 µM
O=C(Cn1cc(Br)c(=O)[nH]c1=O)c1ccc(-c2ccccc2)cc1 | > 100 µM | > 100 µM | > 52 µM | > 100 µM | > 48 µM | > 100 µM | 15.8 µM | > 17.3 µM | > 100 µM | > 100 µM | 62.5 µM
O=c1[nH]c(SCc2cccc([N+](=O)[O-])c2)nc2nc[nH]c12 | > 100 µM | > 100 µM | > 100 µM | > 100 µM | > 100 µM | > 100 µM | > 100 µM | > 100 µM | > 100 µM | > 100 µM | > 100 µM
O=[N+]([O-])C(/C(Cl)=C(\Cl)Br)=C(/Cl)SCc1ccccc1 | 4.06 µM | 14.5 µM | 7.96 µM | 4.09 µM | 30.5 µM | 8.83 µM | 9.76 µM | 18.1 µM | 13.4 µM | 10.9 µM | 18.5 µM
Cc1ccc(S(=O)(=O)CNC(=O)C(O)(O)C(F)(F)F)cc1 | > 100 µM | > 100 µM | > 100 µM | > 100 µM | > 100 µM | > 100 µM | > 100 µM | > 100 µM | > 100 µM | > 100 µM | > 100 µM
Cc1ccc2nc3n[nH]c(N)c3nc2c1 | > 100 µM | > 100 µM | > 100 µM | > 100 µM | > 100 µM | > 100 µM | > 100 µM | > 100 µM | > 100 µM | > 100 µM | > 100 µM
COc1cc(/C=C2\C[C@H]3[C@@H]4CCC5=CC(=O)CC[C@]5(C)[C@H]4CC[C@]3(C)C2=O)cc(OC)c1OC | > 100 µM | > 100 µM | > 100 µM | > 63.6 µM | > 100 µM | > 49 µM | > 100 µM | > 59.8 µM | > 100 µM | 9.09 µM | > 100 µM
C/C(=N\NC(=O)c1ccc(Cl)cc1)c1nc2ncccc2[nH]1 | 55.3 µM | > 100 µM | > 100 µM | > 100 µM | > 100 µM | 81.5 µM | > 100 µM | > 100 µM | > 100 µM | > 100 µM | > 100 µM
O=[N+]([O-])c1ccc(C2ON=C(c3ccccc3)N2C23CC4CC(CC(C4)C2)C3)cc1 (stereo not drawn) | > 10 µM | > 10 µM | > 10 µM | > 10 µM | > 10 µM | > 10 µM | > 10 µM | > 10 µM | > 10 µM | > 10 µM | > 10 µM
O=C(/C=C1\Sc2ccccc2N=C1CC(=O)c1ccccc1)c1ccccc1 | 21.7 µM | 37.4 µM | 41.8 µM | > 100 µM | 27.5 µM | 29.5 µM | 45.8 µM | 87.2 µM | 16 µM | 75.5 µM | 18.2 µM
CCCCCCCCC/C=C1/CC(CO)(COC(=O)CC(C(C)C)C(C)C)OC1=O (stereo not drawn) | 16.1 µM | 20.1 µM | 15.6 µM | 18.3 µM | 18.2 µM | 27.6 µM | 25 µM | 29.7 µM | > 54.2 µM | 19 µM | 25.6 µM
COc1ccc2c(O)c(S(=O)(=O)c3ccc(C)cc3)c(=O)oc2c1OC | > 100 µM | > 100 µM | > 100 µM | > 100 µM | > 100 µM | > 100 µM | > 100 µM | > 100 µM | > 100 µM | > 100 µM | > 100 µM
